From PubChem BioAssay (NCI)
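48-hour exposure; five concentrations; linearly interpolated endpoints. Here, GI50 denotes the concentration required for 50% inhibition of growth. At the TGI there is no net growth.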

How the values were obtained:
Experiment in all cases: inhibition of tumour cell growth, NCI panel, 48 h
A549 NSCLC = tested on: A549 NSCLC
CCRF-CEM leukemia = tested on: CCRF-CEM leukemia
DU-145 prostate = tested on: DU-145 prostate
HCT-116 colon = tested on: HCT-116 colon
OVCAR-4 ovarian = tested on: OVCAR-4 ovarian
OVCAR-5 ovarian = tested on: OVCAR-5 ovarian
RPMI-8226 leukemia = tested on: RPMI-8226 leukemia
SK-MEL-28 melanoma = tested on: SK-MEL-28 melanoma
SK-OV-3 ovarian = tested on: SK-OV-3 ovarian
SW-620 colon = tested on: SW-620 colon

Row | Compound | TGI (A549 NSCLC) | TGI (CCRF-CEM leukemia) | TGI (DU-145 prostate) | TGI (HCT-116 colon) | TGI (OVCAR-4 ovarian) | TGI (OVCAR-5 ovarian) | TGI (RPMI-8226 leukemia) | TGI (SK-MEL-28 melanoma) | TGI (SK-OV-3 ovarian) | TGI (SW-620 colon) | GI50 (A549 NSCLC) | GI50 (CCRF-CEM leukemia) | GI50 (DU-145 prostate) | GI50 (HCT-116 colon) | GI50 (OVCAR-4 ovarian) | GI50 (OVCAR-5 ovarian) | GI50 (RPMI-8226 leukemia) | GI50 (SK-MEL-28 melanoma) | GI50 (SK-OV-3 ovarian) | GI50 (SW-620 colon)
1 | CCOC(=O)C(=[N+]=[N-])C(=O)C[N+]12CCN(CC1)CC2 | > 100 µM | > 100 µM | > 100 µM | > 100 µM | > 100 µM | > 100 µM | > 100 µM | > 100 µM | > 100 µM | > 100 µM |  |  |  |  |  |  |  |  |  | 
2 | CCNc1nc(N)c(C(=O)c2ccc(Cl)cc2)s1 | 70.2 µM | 22.6 µM | > 100 µM | > 100 µM | > 100 µM | > 100 µM | > 100 µM | > 100 µM | > 100 µM | > 100 µM |  |  |  |  |  |  |  |  |  | 
3 | O=[N+]([O-])C(/C(Cl)=C(/Cl)N1CCOCC1)=C1\NCCO1 | > 100 µM | > 100 µM | > 100 µM | > 100 µM | > 100 µM | > 100 µM | > 100 µM | > 100 µM | > 100 µM | > 100 µM |  |  |  |  |  |  |  |  |  | 
4 | CC(C)(C)c1cc(C(O)(C(=O)O)C(=O)O)cc(C(C)(C)C)c1O | > 100 µM | > 100 µM | > 100 µM | > 100 µM | > 100 µM | > 100 µM | > 100 µM | > 100 µM | > 100 µM | > 100 µM |  |  |  |  |  |  |  |  |  | 
5 | O=C(Nc1ccccc1)c1cc2c(cc1Cl)Sc1nccn1S2(=O)=O | > 100 µM | > 75.5 µM | 40.5 µM | > 54.4 µM | 99.9 µM | > 86.3 µM | 70.5 µM | 46.9 µM | > 100 µM | > 78.9 µM |  |  |  |  |  |  |  |  |  | 
6 | COc1cc(Oc2nc3ccccc3nc2C(=O)O)cc(OC)c1OC | > 100 µM | > 100 µM | > 100 µM | > 100 µM | > 100 µM | > 100 µM | > 100 µM | > 100 µM | > 100 µM | > 100 µM |  |  |  |  |  |  |  |  |  | 
7 | Cc1cc(S(=O)(=O)Nc2nc3ccsc3c(=O)n2N)c(S)cc1Cl | > 100 µM | > 100 µM | > 100 µM | > 100 µM | > 100 µM | > 100 µM | > 100 µM | > 100 µM | > 100 µM | > 100 µM |  |  |  |  |  |  |  |  |  | 
8 | CC1(C)C2CCC1(CS(=O)(=O)Nc1ccccc1)C(=O)C2 (stereo not given) | > 100 µM | > 100 µM | > 100 µM | > 100 µM | > 100 µM | > 100 µM | > 100 µM | > 100 µM | > 100 µM | > 100 µM |  |  |  |  |  |  |  |  |  | 
9 | O=C1Cc2c(-c3ccc(Cl)cc3)cc(-c3ccccc3)nc2-c2ccccc2N1 | 23.2 µM | > 63.3 µM | > 61.4 µM | 15.3 µM | 26.4 µM | > 81 µM | 60.8 µM | 34.8 µM | 18.8 µM | > 46 µM |  |  |  |  |  |  |  |  |  | 
10 | COCn1c2ccc(OC(C)=O)cc2c2c(=O)oc(C)nc21 | > 100 µM | > 100 µM | > 100 µM | > 100 µM | > 100 µM | > 100 µM | > 100 µM | > 100 µM | > 100 µM | > 100 µM |  |  |  |  |  |  |  |  |  | 
11 | CN(Cc1c2ccccc2cc2ccccc12)S(=O)(=O)c1ccc(-c2c3nc(c(-c4ccc(S(=O)(=O)N(C)Cc5c6ccccc6cc6ccccc56)cc4)c4ccc([nH]4)c(-c4ccc(S(=O)(=O)N(C)Cc5c6ccccc6cc6ccccc56)cc4)c4nc(c(-c5ccc(S(=O)(=O)N(C)Cc6c7ccccc7cc7ccccc67)cc5)c5ccc2[nH]5)C=C4)C=C3)cc1 | > 100 µM | > 100 µM | > 100 µM | > 100 µM | > 100 µM | > 100 µM | > 100 µM | > 100 µM | > 100 µM | > 100 µM |  |  |  |  |  |  |  |  |  | 
12 | CCN1CCN(C(=O)[C@]23CC[C@@H](C)[C@H](C)[C@@H]2C2=CC[C@@H]4[C@@]5(C)C/C(=C/c6cccnc6)C(=O)C(C)(C)[C@@H]5CC[C@@]4(C)[C@]2(C)CC3)CC1 | 16.8 µM | 8.97 µM | 4.21 µM | 3.55 µM | 7.36 µM | 2.93 µM | 6.35 µM | 3.15 µM | 9.2 µM | 4.14 µM | 3.15 µM | 2.78 µM | 2.08 µM | 1.69 µM | 2.57 µM | 1.54 µM | 2.18 µM | 1.75 µM | 2.7 µM | 1.9 µM
13 | CCCC(Sc1nc(N)nc2nc[nH]c12)C(=O)O (stereo not given) | > 100 µM | > 100 µM | > 100 µM | > 100 µM | > 100 µM | > 100 µM | > 100 µM | > 100 µM | > 100 µM | > 100 µM |  |  |  |  |  |  |  |  |  | 
14 | Cc1ccc(S(=O)(=O)NC(=O)NC(Cc2c[nH]c3ccccc23)C(=O)O)cc1 (stereo not given) | > 100 µM | > 100 µM | > 100 µM | > 100 µM | > 100 µM | > 100 µM | > 100 µM | > 100 µM | > 100 µM | > 100 µM |  |  |  |  |  |  |  |  |  | 
